A word on the IC50: it is the concentration that inhibits the measured activity by half. A higher IC50 goes with weaker potency in that assay.

Peptide text beside a SMILES is read from it.

The target in this assay is HLA-A*0201 (Homo sapiens, UniProt P04439, D140Y/D185E/D98H/E176V/E277Q/G131W/G231S/I119V/I121R/I166T/I218V/L300P/L318F/N151K/N90K/P208A/P217A/Q86G/Q94H/R138H/R169H/T345S). The assay can be described thus: HLA-A*0201 peptide-binding assay.
Turning to `CC(C)C[C@H](NC(=O)[C@H](CO)NC(=O)[C@H](CCCNC(=N)N)NC(=O)[C@@H](NC(=O)[C@H](Cc1ccc(O)cc1)NC(=O)[C@H](COP(=O)(O)O)NC(=O)[C@H](CC(=O)O)NC(=O)[C@H](CC(C)C)NC(=O)CN)C(C)C)C(=O)O` [GLDpSYVRSL] (HELM PEPTIDE1{G.L.D.[O=C([C@H](COP(=O)(O)O)N[*:1])[*:2]].Y.V.R.S.L}$$$$V2.0), the IC50 is 0.058 µM.

`CC(C)C[C@H](NC(=O)[C@H](CO)NC(=O)[C@H](CCCNC(=N)N)NC(=O)[C@@H](NC(=O)[C@H](Cc1ccc(O)cc1)NC(=O)[C@@H](NC(=O)[C@H](CC(=O)O)NC(=O)[C@H](CC(C)C)NC(=O)CN)[C@@H](C)OP(=O)(O)O)C(C)C)C(=O)O` [GLDpTYVRSL] (HELM PEPTIDE1{G.L.D.[C[C@@H](OP(=O)(O)O)[C@H](N[*:1])C(=O)[*:2]].Y.V.R.S.L}$$$$V2.0): the IC50 stood at 0.067 µM.

In turn, `CC(C)C[C@H](NC(=O)[C@H](CO)NC(=O)[C@H](CCCNC(=N)N)NC(=O)[C@@H](NC(=O)[C@H](Cc1ccc(O)cc1)NC(=O)[C@H](Cc1ccc(OP(=O)(O)O)cc1)NC(=O)[C@H](CC(=O)O)NC(=O)[C@H](CC(C)C)NC(=O)CN)C(C)C)C(=O)O` [GLDpYYVRSL] (HELM PEPTIDE1{G.L.D.[O=C([C@H](Cc1ccc(OP(=O)(O)O)cc1)N[*:1])[*:2]].Y.V.R.S.L}$$$$V2.0) yielded an IC50 of 0.211 µM.
